This is an account of results in patent US20050037446A1, “Agents that recognize src when phosphorylated at serine 17” (priority 2001, published 2005).

The subject of one experiment is ERK1/2. As to the kind of experiment: ERK1/2 phosphorylation Western blot, NIH3T3 cells. In kind it is cell-based. Conditions: inhibition of SFKs. The method, then:
To determine the role of SFKs in cAW's antagonism of extracellular signal regulated kinase (ERK) activation, the following methods were used. NIH3T3 cells were incubated in the presence or absence of either H89 or PP2 for 20 minutes, pretreated with Forskolin for five minutes, and then stimulated with 100 ng/ml, epidermal growth factor (EGF, Sigma), or 100 ng/ml platelet-derived growth factor (PDGF, Sigma) for five minutes, as described in EXAMPLE 1. Cell lysates were analyzed by Western blot for phosphorylation of endogenous ERK1/2 or total ERK2. To detect phosphorylation of endogenous ERK1/2, phosphorylation-specific ERK antibodies (PERK) that recognize phosphorylated ERK1 (pERK1) and ERK2 (pERK2), at residues threonine 183 and tyrosine 185 were used (New England Biolabs, Beverly, Mass.).

The test system of experiment [1] is Ras. As to the kind of experiment: Ras activation affinity assay in SYF and Src++ cells. In kind it is cell-based, mouse. How it is done:
(§1) Endogenous GTP-loaded Ras was determined using a Ras activation affinity assay as follows. Hek293 cells were grown, stimulated, and lysed as described above. Activated Ras was assayed as previously described (Schmitt and Stork, Mol. Cell. Biol. 21:3671-83, 2001). Briefly, equivalent amounts of lysates from stimulated cells were incubated with GST-Rafl-RBD (Ras-binding domain) as specified by the manufacturer (Upstate Biotechnology, Lake Placid, N.Y.). Proteins were eluted with 2×Laemmli buffer and applied to a 12% SDS polyacrylamide gel. Proteins were transferred to a PVDF membrane, blocked at room temperature for 1 hour in 5% milk and probed with either Ras or Flag antibody overnight at 4° C., followed by an HRP-conjugated anti-mouse secondary. Proteins were detected using enhanced chemiluminescence.
To determine which SFK was mediating these effects, cell lines derived from mouse embryo fibroblasts that lack SFKs, were used as described in Example 3. SYF and Srcd cells were transfected with Flag-Rap 1, and WT Src or pcDNA3 vector alone as described in Example 3. Cells were stimulated with isoproterenol or left untreated, and then cell lysates were examined for active GTP-loaded Rap1 (Flag-Rap1-GTP) as described in Examples 1 and 6. Isoproterenol's ability to activate Rap1 was absent in SYF cells, but was retained in Src^++ cells. […]

The subject of experiment [2] is Ras. Put plainly: Ras activation affinity assay (GST-Raf1-RBD), Hek293 cells. In kind it is cell-based. How it is done:
as §1
Mutation of tyrosine 527 of Src to phenylanaline (Y527F) produces a constitutively active (oncogenic) Src by eliminating the inhibitory phosphorylation at Y527 (Xu et al. Mol. Cell. 3(5): 629-38, 1999; Brown and Cooper, Biochim. Biophys. Acta 1287(2-3): 121-49, 1996). To determine the effect of this mutant on Ras and Rap1 activation, Hek293 cells were transfected with Flag-tagged Rap1 or Flag-tagged Ras, in the presence or absence of pcDNA3, SrcY527F, SrcS17A/Y527F, SrcS17D/Y527F, CBR, or Cb1-ct using the methods described above. […]

Turning to `CC(C)(C)n1nc(-c2ccc(Cl)cc2)c2c(N)ncnc21` [PP2, 4-amino-5-(4-chlorophenyl)-7-(t-butyl)pyazolo[3,4-d]pyrimidine], in the experiment on ERK1/2, the “Effect on EGF's or PDGF's activation of ERKs” value was “no observable effect” and the “Effect on Forskolin's inhibition of ERKs” value was “prevented Forskolin's inhibition of ERKs”.

Take `CC(C)NCC(O)c1ccc(O)c(O)c1` (centres unmarked) [isoproterenol]: the entries for the “Ras activation by agonist” value in the experiment on Ras [1] (SYF cells) and in the experiment on Ras [1] (Src++ cells) were “absent” and “retained”, respectively. In the experiment with Ras [2], the “Activation of endogenous Ras” value is “activated endogenous Ras”.
